The nature of data set [1]: Excretion of 3H-Huperzine A after a single dose. It is filed as in vivo.
Data set [2] can be described thus: Plasma protein binding by equilibrium dialysis. In kind it is in vitro ADME. Conditions: mouse, plasma of normal mice. The text has this: Using equilibrium dialysis, it could be shown that the protein binding of ^3 H-Huperzine A in the plasma of normal mice was 17.2±4.1%.
Another data set can be described thus: in vivo. Conditions: rat, iv; for k el / Vd / half-life: rat blood.
The conditions of data set [3]: iv 375 μCi/kg, rat blood.
Data set [4] can be described thus: Tissue distribution of 3H-Huperzine A radioactivity, iv. In kind it is in vivo, rat. On the procedure: After giving 250 μCi/kg by iv injections of ^3 H-Huperzine A to the rats, they were sacrificed at different times by bloodletting and the radioactivity contents of the organs were measured.
The next data set addresses true cholinesterase (Rattus norvegicus, UniProt P37136).
[5] abbreviates: seven days after a single dose, 10080 min.

Consider two compounds from patent US5177082A, “Huperzines and analogs” (priority 1990, dated 1993).

Like-named read-outs stand apart in the source and are kept apart here.

A word on the fraction unbound: it is free concentration divided by total concentration. A high value points to much free substance. As usually defined, the clearance is the rate of elimination divided by the concentration. For orientation: Vd means the apparent volume that relates the amount in the body to the concentration in plasma or blood. Low readings indicate confinement near the circulation, high ones extensive tissue distribution. In general, half-life refers to the time needed for the level to fall by half in the phase considered. A lower half-life goes with rapid decline.

Sequence of true cholinesterase (P37136-2 with tags, fused parts or gaps limits assumed): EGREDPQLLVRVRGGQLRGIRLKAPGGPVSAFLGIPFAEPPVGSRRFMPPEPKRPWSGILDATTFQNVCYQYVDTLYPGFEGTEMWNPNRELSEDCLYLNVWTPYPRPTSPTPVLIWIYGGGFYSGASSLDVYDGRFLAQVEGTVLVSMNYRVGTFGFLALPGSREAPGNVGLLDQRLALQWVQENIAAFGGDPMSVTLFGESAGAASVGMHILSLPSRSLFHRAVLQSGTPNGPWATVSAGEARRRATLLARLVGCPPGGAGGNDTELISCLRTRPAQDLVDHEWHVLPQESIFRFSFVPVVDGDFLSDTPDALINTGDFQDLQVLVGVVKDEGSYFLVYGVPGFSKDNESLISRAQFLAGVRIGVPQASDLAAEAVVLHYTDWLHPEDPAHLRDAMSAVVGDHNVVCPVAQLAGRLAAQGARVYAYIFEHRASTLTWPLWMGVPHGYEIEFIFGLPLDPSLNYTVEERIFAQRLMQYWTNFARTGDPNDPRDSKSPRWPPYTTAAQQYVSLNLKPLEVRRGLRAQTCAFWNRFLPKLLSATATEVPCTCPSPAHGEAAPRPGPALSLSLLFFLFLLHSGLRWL

On to `C/C=C1\[C@H]2C=C(C)C[C@]1(N)c1ccc(=O)[nH]c1C2` [3H-Huperzine A], for which the “eliminated in the urine” value in data set [1] (setting [5]) came to 86.1%. In addition, in data set [1] (setting [5]), the eliminated through feces was found to be 5.5%. Also, in data set [1] (within twenty-four hours, 1440 min), the “excreted drug appearing within twenty-four hours (urine)” value worked out at 84.9%. The compound also had a fraction unbound in data set [2] of 0.828. The “time of peak radioactivity in blood” value (ig 375 μCi/kg, fasted 14 hours) was in the range of 45 to 60 min. Also, the “radioactivity in the blood” value is, setting by setting: (seven hours after ig) “still relatively high”; (twenty minutes after ig) “had risen noticeably”. In “in vivo”, this compound displayed a clearance of 21.2 mL/min/kg. The k el in “in vivo” (K10, iv 375 μCi/kg) is 0.00034 s⁻¹; in “in vivo” (phase rate constant β, iv 375 μCi/kg), 9.67e-05 s⁻¹. The Vd is 1.04 L/kg in the data set “in vivo” (Vc, iv 375 μCi/kg) and 3.66 L/kg in the data set “in vivo” (Vd, iv 375 μCi/kg). Further, the half-life came out at 0.09 h in “in vivo” (t1/2α, iv 375 μCi/kg) and 1.99 h in “in vivo” (t1/2β, iv 375 μCi/kg). This compound gave a K12 in data set [3] of 0.0778. Besides, the K21 in data set [3] is listed as 0.0366. In data set [3], the “phase rate constant α” value turned out to be 0.129 min⁻¹. Moreover, the “radioactivity contents of the organs” value in data set [4] (15 minutes after 250 μCi/kg iv) was “the kidney and liver had the highest contents, the lungs, spleen and heart had less and the fat and brain had the least”; in data set [4] (twelve hours after 250 μCi/kg iv), “the radioactivity in each tissue was close to zero”; in data set [4] (two hours after 250 μCi/kg iv), “the radioactivity in the other tissues was markedly lower while that in the brain rose slightly”. Further, the “radioactivity in every organ examined” value in data set [4] (after twenty-four hours) is reported as “only a minute quantity of radioactivity”. Further, in data set [4] (rat, in vivo), the “brain distribution / blood-brain barrier” value is recorded as “can pass the blood-brain barrier”.
For `C[N+](C)(C)CCO.[Cl-]` [choline chloride], the “inhibition vs time response” value against true cholinesterase is reported as “The same response was noted”.
